Patent US7192931B2, “Treatment of demyelinating diseases” (Neuren Pharmaceuticals Ltd., priority 2000, dated 2007)

Key:
[1] = system: NMDA receptor subunit NR1; test: NMDA receptor subunit NR1 expression in spinal cord; format: in vivo, mouse; conditions: spinal cord of EAE mice, immunohistochemistry and Western blot
Text: Frozen sections from lumbar spinal cord (10 μm) were acetone-fixed and immunostained for oligodendrocyte content with an antibody against CNPase (Sigma; diluted 1:100); for axonal damage with an antibody against non-phosphorylated neurofilament-H (SM 1-32; Stemberger Monoclonals Incorporated, Lutherville, Md., USA; diluted 1:1000), and for GluR2 and NR1 content using mouse mAbs obtained from Zymed Laboratories Inc., Carlton, San Francisco, Calif. Antibody staining was visualized with an avidin:biotinylated enzyme complex (Vector Laboratories, Burlingame, Calif., USA). Sections were viewed under a light microscope, and cells stained with the anti-CNPase and SM 1-32 antibodies were counted.
PBS-perfused spinal cords were homogenized in lysis buffer (50 mM Tris pH 7.4, 100 μM EDTA, 0.25 M sucrose, 1% sodium dodecyl sulfate [SDS], 1% Nonidet P-40 [NP40], 1 μg/mL leupeptin, 1 μg/mL pepstatin A, and 100 μM phenylmethylsulfonylfluoride) at 4° C. using a motor-driven homogenizer (Virtus, Gardiner, N.Y.). […] Protein concentrations of the supernatants were determined as described (Peterson, 1983), and 100 μg of protein resolved on 10% polyacrylamide SDS-gels under reducing conditions and then electrophoretically transferred to Hybond C Extra nitrocellulose membranes (Amersham Life Science, England). […]

GluR2 = GluR2 subunit expression in spinal cord; format: in vivo, mouse; conditions: spinal cord of EAE mice, immunohistochemistry and Western blot
Experimental: PBS-perfused spinal cords were homogenized in lysis buffer (50 mM Tris pH 7.4, 100 μM EDTA, 0.25 M sucrose, 1% sodium dodecyl sulfate [SDS], 1% Nonidet P-40 [NP40], 1 μg/mL leupeptin, 1 μg/mL pepstatin A, and 100 μM phenylmethylsulfonylfluoride) at 4° C. using a motor-driven homogenizer (Virtus, Gardiner, N.Y.). […] The membranes were washed thrice with TBS-T and incubated with horseradish peroxidase-conjugated anti-mouse IgG (Sigma) diluted 1:5000 in TBS-T. Immunoreactivity was detected by Enhanced Chemiluminescence (Amersham International plc. England) and autoradiography.

EAE = conditions: Smith et al., 2000, Pitt et al.; cited from earlier work
oligodendrocytes = conditions: Smith et al., 2000, Pitt et al.; cited from earlier work
[2] = system: C57Bl/6 mice with MOG35-55 peptide-induced EAE; test: Neuropathology scoring of spinal cord sections (pathology status scale); format: in vivo, mouse; conditions: for Pathology status scale: Oligodendrocytes** / Pathology status scale: Remyelination**: reverse scores; for Pathology status scale: Axonal damage / Pathology status scale: Demyelination / Pathology status scale: Inflammation: scored 0 to 5; for Total scores After treatment (pathology status scale): sum over the six pathology parameters after treatment; for cumulative scores for inflammation, demyelination, remyelination, apoptosis, oligodendrocyte loss, and axonal damage following treatment: text statement of Table 2 totals
Experimental: C57Bl/6 mice (8–10 week old) were injected subcutaneously in one flank with 300 μg of MOG35-55 peptide ([…]: SEQ ID NO:1) synthesized by Mimotapes Pty Ltd, Clayton, Australia and emulsified in CFA containing 500 μg of Mycobacterium tuberculosis H37Ra (DIFCO Laboratories, Detrit, USA). They also received 500 ng of pertussis toxin (List Biological Laboratories, CA, USA) in 200 μl PBS intravenously via the tail vein, followed 48 hours later by a second dose. A second injection of MOG peptide was given in the absence of pertussis toxin one week later in the opposite flank, as described previously (Kanwar et al., 2000b).
Two treatment protocols were employed, involving the treatment of early disease, versus advanced disease. For early disease, reagents were administered at day 35 (following MOG injection). Antibody was administered thrice on alternate days, whereas neuroprotectors were given daily for 6 days, where 50% of reagent was given ip and 50% iv. In the treatment of advanced disease, therapy as above was initiated at day 60, with either three or eight anti-MAdCAM-1 mAb injections, and neuroprotectors given daily for either 7 or 18 days.
Mice were perfused through the left cardiac ventricle with ice-cold PBS or glutaraldehyde, and the CNS including brain and spinal cord were prepared for frozen or epoxy sections, respectively. Thin slices were taken at all levels of the CNS including spinal cord (cervical, midthoracic, T11, T12/13, upper lumbar, L6, L7 and sacral) and sacral roots. One-μm thick epoxy sections taken from different levels of the spinal cord were stained with toluidine blue, and examined by light microscopy by an investigator blinded to the sample identity. Multiple sections from the spinal cord were scored from 0 to 5 for inflammation, demyelination, remyelination, and axonal necrosis or damage, using a previously published scoring system (Moore et al., 2000).

[3] = system: apoptotic cells in spinal cord of EAE mice; test: In situ detection of apoptotic cells in the CNS by TUNEL assay; format: in vivo, mouse; conditions: spinal cord sections, compared to mice mock treated with PBS or rat IgG
Experimental: Cells undergoing apoptosis were identified using the in situ TUNEL assay. Five-μm thick serial sections of brain and spinal cord were prepared to detect apoptosis by TUNEL (i.e., terminal deoxynucleotidyl transferase-mediated deoxyuridine triphosphate-digoxigenin nick end labeling) staining using the In Situ Apoptosis Detection Kit from Boehringer Mannheim (Germany). Briefly, frozen sections were fixed in 4% paraformaldehyde, permeabilized in 0.1% Triton X-100, incubated with 20 μL TUNEL reagent for 60 minutes at 37° C., and then examined by fluorescence microscopy. Adjacent sections were counterstained with hematoxylin and mounted onto poly-L-lysine coated slides to allow the total number of nucleated cells to be counted. The percentage of apoptotic cells was assessed in ten randomly selected fields viewed at 40× magnification. The apoptotic index (AI) was calculated as follows: AI=number of apoptotic (TUNEL-positive) cells×100/total number of nucleated cells.

hippocampus neurons = conditions: Saura et al., 1999; cited from earlier work
[4] = system: N-methyl-D-aspartate (NMDA) receptor; conditions: U.S. Pat. No. 5,804,550; cited from earlier work

Compound | NMDA receptor (NR1 subunit) expression [1] | GluR2 expression (GluR2) | Pathology status scale: Apoptosis ([2]; day 45) | Pathology status scale: Oligodendrocytes** ([2]; day 45) | Pathology status scale: Remyelination** ([2]; day 45) | Pathology status scale: Axonal damage ([2]; day 45) | Pathology status scale: Demyelination ([2]; day 45) | Pathology status scale: Inflammation ([2]; day 45) | Pathology status scale: Apoptosis ([2]; day 60) | Pathology status scale: Oligodendrocytes** ([2]; day 60) | Pathology status scale: Remyelination** ([2]; day 60) | Pathology status scale: Axonal damage ([2]; day 60) | Pathology status scale: Demyelination ([2]; day 60) | Pathology status scale: Inflammation ([2]; day 60) | Pathology status scale: Apoptosis ([2]; day 65) | Pathology status scale: Oligodendrocytes** ([2]; day 65) | Pathology status scale: Remyelination** ([2]; day 65) | Pathology status scale: Axonal damage ([2]; day 65) | Pathology status scale: Demyelination ([2]; day 65) | Pathology status scale: Inflammation ([2]; day 65) | further results
NS(=O)(=O)c1cccc2c1c([N+](=O)[O-])cc1nc(O)c(O)nc12 [NBQX, 2,3-dihydroxy-6-nitro-7-sulfamoylbenzo(f)quinoxaline] | caused down-regulation of the NMDA receptor | downregulates the AMPA receptor | 2 | 2 | 3 | 2 | 2 | 3 | 3 | 3 | 2 | 3 | 3 | 3 | 2 | 2 | 2 | 1 | 2 | 2 | pathogenesis of EAE (EAE): slightly ameliorates the pathogenesis of EAE; excitotoxic effects of glutamate on oligodendrocytes (oligodendrocytes): inhibits the excitotoxic effects of glutamate on oligodendrocytes; Pathology status scale: Apoptosis ([2]; day 70): 1; Pathology status scale: Oligodendrocytes** ([2]; day 70): 1; Pathology status scale: Remyelination** ([2]; day 70): 2; Pathology status scale: Axonal damage ([2]; day 70): 1; Pathology status scale: Demyelination ([2]; day 70): 1; Pathology status scale: Inflammation ([2]; day 70): 2; Pathology status scale: Apoptosis ([2]; day 119): 2; Pathology status scale: Oligodendrocytes** ([2]; day 119): 2; Pathology status scale: Remyelination** ([2]; day 119): 1; Pathology status scale: Axonal damage ([2]; day 119): 2; Pathology status scale: Demyelination ([2]; day 119): 2; Pathology status scale: Inflammation ([2]; day 119): 1; Total scores After treatment (pathology status scale) [2]: 46; cumulative scores for inflammation, demyelination, remyelination, apoptosis, oligodendrocyte loss, and axonal damage following treatment [2]: 46; reductions in the numbers of apoptotic cells [3]: ~30%
Gly-Pro-Glu [GPE] | not effective | negligible effect | 3 | 3 | 2 | 3 | 3 | 2 | 3 | 3 | 3 | 3 | 3 | 3 | 2 | 2 | 2 | 2 | 2 | 2 | neuronal death in the hippocampus injured by NMDA (hippocampus neurons): prevents neuronal death; Pathology status scale: Apoptosis ([2]; day 70): 3; Pathology status scale: Oligodendrocytes** ([2]; day 70): 2; Pathology status scale: Remyelination** ([2]; day 70): 2; Pathology status scale: Axonal damage ([2]; day 70): 3; Pathology status scale: Demyelination ([2]; day 70): 3; Pathology status scale: Inflammation ([2]; day 70): 2; Pathology status scale: Apoptosis ([2]; day 119): 2; Pathology status scale: Oligodendrocytes** ([2]; day 119): 2; Pathology status scale: Remyelination** ([2]; day 119): 1; Pathology status scale: Axonal damage ([2]; day 119): 2; Pathology status scale: Demyelination ([2]; day 119): 2; Pathology status scale: Inflammation ([2]; day 119): 1; Total scores After treatment (pathology status scale) [2]: 55; cumulative scores for inflammation, demyelination, remyelination, apoptosis, oligodendrocyte loss, and axonal damage following treatment [2]: 55; glutamate binding to the NMDA receptor [4]: inhibits glutamate binding; reductions in the numbers of apoptotic cells [3]: ~30%
